Measured values taken from patent US8314144B2, “Compounds having antitumor activity” (Defiante Farmaceutica, S.A., priority 2004, dated 2012).

Tests used:
[1] = system: human hepatocarcinoma cells (HepG2); experiment: Cell mortality of HepG2 cells by propidium iodide flow cytofluorimetry; type: cell-based
Experimental: (§1) The cells were seeded in 60 mm-diameter Petri dishes. After plating the cells were grown for 24 hours prior to their treatment.
(§2) In this experiment, increasing amounts of the test molecule were added to hemiconfluent HepG2 cells (Kogure et al., Cancer Chemother. Pharmacol., 2003; DOI. 10.1007/s); the antiproliferative and proapoptotic effects were determined at different times from cell seeding.
(§3) The experimental design in some cases provided for the addition of the test compound once the cell culture had been prepared, in other cases the cultures were exposed to the compound every 24 hours after suitably removing the conditioned medium and washing the cells with new (complete) medium. The cells were counted in a Bürker chamber after suitable dilution with a vital dye to visualize the living cells. In particular, the trypan blue exclusion method was used for cell count at 0, 24 and 48 hour treatment. At least 10 cell counts were performed for each experiment and each treatment was carried out in quadruple.
(§4) A further analysis involved cytofluorimetry utilizing propidium iodide as a marker for […] cells. The test compound was assayed vs. the CTP inhibitor etomoxir to verify whether the tumoricidal effect could be attributed to CPT-1 inhibition or involved novel mechanisms.
In addition, assays on cell viability were carried out using flow cytofluorimetry techniques.
In further experiments the test molecule was added every 24 hours, as above described, after suitably removing the surnatants and washing the cultures with complete medium. […] In the control, the surnatant was eliminated and complete medium alone was added to the cultures.

[2] = system: acute leukaemia T cells (Jurkat); experiment: Cell mortality of Jurkat cells by propidium iodide flow cytofluorimetry; type: cell-based
Experimental: The cells were seeded in […] flasks. After plating the cells were grown for 24 hours prior to their treatment.
The experiment was carried out by adding increasing amounts of the test molecule to hemiconfluent Jurkat cells; the proapoptotic effect was determined at different times from culture preparation.
The experimental design provided for the addition of the test compound only at the start of cell culturing, and the determination of the effects at the established times. The data on cell mortality were obtained using propidium iodide flow cytofluorimetry techniques only. The fact that those cells live suspended in culture rendered these assays extremely easy to perform.
For this reason the cell mortality was determined just after 2 hour treatment and at 24, 48 and 72 hrs.
The mortality was calculated as the percentage over 10.000 acquired standard events. Since the results are almost exactly overlapping, with very low deviation in all the readings for each single experiment, the mean values of 5 cytofluorimetric readings are reported in the following Table without standard deviation.

normal PBMCs = experiment: Viability test with lymphocytes (PBMCs) taken from healthy individuals; type: cell-based; conditions: 72 hours
Experimental: In addition, in order to exclude the induction of toxicity in normal PBMCs by the test molecule, viability tests were also carried out with lymphocytes taken from healthy individuals and contacted with the test compound.

[3] = system: AH-130 Yoshida ascites hepatoma; experiment: In vivo antineoplastic activity in rats bearing Yoshida tumor; set-up: species or system rat; conditions: 25 mg/Kg i.p., alternate days, 4 treatments, 15 animals
Experimental: Male Wistar rats (Morini s.r.l.) of 190-200 g weight were maintained at 22±2° C., with a light/dark cycle of 12 hours, and were given free access to water and food (standard diet). Some rats were intraperitoneally inoculated with 10×10^7 cells from AH-130 Yoshida ascites hepatoma (Llovera et al., Int. J. Cancer 61:138-41 (1995); kind gift from Prof. J M Argilès). 5-7 days after the inoculum, the rats developed an ascites that could be detected by macroscopic analysis of the abdomen.
(§5) The experimental protocol provided that 7 days after ascites induction 15 animals (treated group) received 2 ml of a buffered saline containing ST (25 mg/Kg i.p.), whereas other 15 animals (control group) received the buffered saline alone. The same treatment was conducted at alternate days for one week up to a total of 4 treatments for each animal. The dosage was selected on the basis of preliminary studies in which a 6.1 μM plasma concentration of ST was achieved 5 hr after intraperitoneal administration. The animals were subsequently kept under observation for 3 weeks (follow-up), examining the ascites effusion, the presence of subcutaneous neoplastic mass in the inoculum site, and the mortality.

[4] = Plasma concentration after intraperitoneal administration (preliminary studies); type: in vivo, rat; conditions: 5 hr after intraperitoneal administration
Experimental: as §5

[5] = system: human hepatocarcinoma cells (HepG2); experiment: HepG2 cell count (trypan blue exclusion), antiproliferative and tumoricidal effect; type: cell-based
Experimental: as §1, §2, §3, §4
The data relating to cell viability are expressed as percentage on the number of viable cells from control cultures (=100%). (E=etomoxir; ST1326=tested compound). […] At the same concentrations etomoxir was ineffective.

For `CCCCCCCCCCCCCCNC(=O)N[C@H](CC(=O)[O-])C[N+](C)(C)C` [ST1326, R-4-trimethylammonium-3-(tetradecylcarbamoyl)-Aminobutyrate], which cell mortality ([1]; HepG2, 0.1 μM added every 24 hours, 48 hours (second addition)) is on record?
Its cell mortality is 45 ± 2.0%.

What about the cell mortality ([1]; HepG2, 0.1 μM added every 24 hours, 72 hours (third addition)) of the same compound?
Its cell mortality is 56.5 ± 1.2%.

And the cell mortality ([1]; HepG2, 0.1 μM, prior experiments, partial tumoricidal effect)?
Its cell mortality is ~50%.

And the cell mortality ([1]; HepG2, 0.1 μM, treated only once (time 0), 24 hours)?
The cell mortality was 15.3 ± 2.1%.

What about the cell mortality ([1]; HepG2, 0.1 μM, treated only once (time 0), 48 hours) of the same compound?
Its cell mortality is 27.3 ± 2.2%.

And the cell mortality ([1]; HepG2, 0.1 μM, treated only once (time 0), 72 hours)?
Its cell mortality is 49.9 ± 1.2%.

And the cell mortality ([1]; HepG2, 5 μM added every 24 hours, 48 hours (second addition))?
Its cell mortality is 64.7 ± 1.7%.

What about the cell mortality ([1]; HepG2, 5 μM added every 24 hours, 72 hours (third addition)) of the same compound?
Its cell mortality is 89.7 ± 1.4%.

And the cell mortality ([1]; HepG2, 5 μM, treated only once (time 0), 24 hours)?
Its cell mortality is 25.78 ± 1.70%.

And the cell mortality ([1]; HepG2, 5 μM, treated only once (time 0), 48 hours)?
The cell mortality was 56.29 ± 1.51%.

And the cell mortality ([1]; HepG2, 5 μM, treated only once (time 0), 72 hours)?
The cell mortality was 93.48 ± 1.5%.

And the cell mortality ([1]; HepG2, 10 μM added every 24 hours, 48 hours (second addition))?
The cell mortality was 87.5 ± 2.03%.

And the cell mortality ([1]; HepG2, 10 μM added every 24 hours, 72 hours (third addition))?
The cell mortality was 91.3 ± 1.9%.

And the cell mortality ([1]; HepG2, 10 μM, treated only once (time 0), 24 hours)?
Its cell mortality is 53.21 ± 1.5%.

What about the cell mortality ([1]; HepG2, 10 μM, treated only once (time 0), 48 hours) of the same compound?
The cell mortality was 85.10 ± 0.9%.

What about the cell mortality ([1]; HepG2, 10 μM, treated only once (time 0), 72 hours) of the same compound?
Its cell mortality is 96.3 ± 1.1%.

And the cell mortality ([1]; HepG2, 20 μM added every 24 hours, 48 hours (second addition))?
Its cell mortality is 93.9 ± 1.03%.

And the cell mortality ([1]; HepG2, 20 μM added every 24 hours, 72 hours (third addition))?
Its cell mortality is 98.1 ± 0.9%.

What about the cell mortality ([1]; HepG2, 20 μM, treated only once (time 0), 24 hours) of the same compound?
Its cell mortality is 88.22 ± 1.9%.

And the cell mortality ([1]; HepG2, 20 μM, treated only once (time 0), 48 hours)?
The cell mortality was 89.10 ± 0.17%.

And the cell mortality ([1]; HepG2, 20 μM, treated only once (time 0), 72 hours)?
Its cell mortality is 98.51 ± 1.3%.

And the cell mortality ([2]; 0.1 μM, 2 hours)?
Its cell mortality is 3%.

And the cell mortality ([2]; 0.1 μM, 24 hours)?
The cell mortality was 4%.

What about the cell mortality ([2]; 0.1 μM, 48 hours) of the same compound?
Its cell mortality is 5%.

What about the cell mortality ([2]; 0.1 μM, 72 hours) of the same compound?
The cell mortality was 13%.

What about the cell mortality ([2]; 0.25 μM, 2 hours) of the same compound?
The cell mortality was 3%.

And the cell mortality ([2]; 0.25 μM, 24 hours)?
Its cell mortality is 5%.

And the cell mortality ([2]; 0.25 μM, 48 hours)?
The cell mortality was 8%.

What about the cell mortality ([2]; 0.25 μM, 72 hours) of the same compound?
The cell mortality was 14%.

What about the cell mortality ([2]; 0.50 μM, 2 hours) of the same compound?
The cell mortality was 7%.

And the cell mortality ([2]; 0.50 μM, 24 hours)?
Its cell mortality is 15%.

And the cell mortality ([2]; 0.50 μM, 48 hours)?
The cell mortality was 35%.

What about the cell mortality ([2]; 0.50 μM, 72 hours) of the same compound?
The cell mortality was 56%.

And the cell mortality ([2]; 1.0 μM, 2 hours)?
Its cell mortality is 6%.

What about the cell mortality ([2]; 1.0 μM, 24 hours) of the same compound?
The cell mortality was 79%.

What about the cell mortality ([2]; 1.0 μM, 48 hours) of the same compound?
Its cell mortality is 83%.

What about the cell mortality ([2]; 1.0 μM, 72 hours) of the same compound?
The cell mortality was 90%.

What about the cell mortality ([2]; 2.5 μM, 2 hours) of the same compound?
The cell mortality was 6%.

What about the cell mortality ([2]; 2.5 μM, 24 hours) of the same compound?
The cell mortality was 91%.

What about the cell mortality ([2]; 2.5 μM, 48 hours) of the same compound?
The cell mortality was 97%.

What about the cell mortality ([2]; 2.5 μM, 72 hours) of the same compound?
Its cell mortality is 99%.

And the cell mortality ([2]; 5.0 μM, 2 hours)?
Its cell mortality is 8%.

What about the cell mortality ([2]; 5.0 μM, 24 hours) of the same compound?
The cell mortality was 99%.

What about the cell mortality ([2]; 5.0 μM, 48 hours) of the same compound?
The cell mortality was 99%.

And the cell mortality ([2]; 5.0 μM, 72 hours)?
The cell mortality was 99%.

And the cell mortality ([2]; 10 μM, 2 hours)?
Its cell mortality is 20%.

And the cell mortality ([2]; 10 μM, 24 hours)?
The cell mortality was 99%.

What about the cell mortality ([2]; 10 μM, 48 hours) of the same compound?
Its cell mortality is 99%.

What about the cell mortality ([2]; 10 μM, 72 hours) of the same compound?
The cell mortality was 99%.

And the “viability test (cell mortality) in PBMCs” value (normal PBMCs; 1.0 μM)?
The value was 9%.

What about the “viability test (cell mortality) in PBMCs” value (normal PBMCs; 5.0 μM) of the same compound?
Its value is 10%.

What about the “viability test (cell mortality) in PBMCs” value (normal PBMCs; 10 μM) of the same compound?
The value was 10%.

What about the “viability test (cell mortality) in PBMCs” value (normal PBMCs; 20 μM) of the same compound?
Its value is 12%.

And the “Presence of cachexy (No. of animals)” value [3]?
Its value is 1.

And the “Presence of tumor cells in the abdominal cavity (post-mortem examination) (No. of animals)” value [3]?
The value was 0.

What about the “Presence of tumor mass in the inoculum site (No. of animals)” value [3] of the same compound?
Its value is 0.

And the “Survival at 1 week follow-up (No. of survived animals)” value [3]?
The value was 15.

What about the “Survival at 2 week follow-up (No. of survived animals)” value [3] of the same compound?
The value was 15.

And the “Survival at 3 week follow-up (No. of survived animals)” value [3]?
Its value is 15.

And the plasma concentration [4]?
Its plasma concentration is 6.1 µM.

What about the “number of viable cells versus control cultures (FIGURE)” value ([5]; HepG2, less than 10 μM, after 24 hours) of the same compound?
The value was “remarkable reduction in the number of cells”.

What about the “antiproliferative and tumoricidal activity in vitro” value ([5]; tumor cell lines, same experimental conditions for etomoxir and compounds (I)) of the same compound?
The value was “in vitro antiproliferative effect associated with a significant tumoricidal activity”.
